First: Cc1ccc(N2CCCN(c3ccnc4sc(C(N)=O)c(N)c34)CC2)nc1
Second: O=C(CCCN1CCN(c2nc3nccc(-c4ccncc4)n3n2)CC1)c1ccc(F)cc1
The melting point of the first is higher: 205 to 208 °C for the first, 133 to 135 °C for the second.

First: CC(=O)C1CCC2C3=C(C(=O)CC12C)C1(C)CCC(O)CC1CC3 (stereo not given)
Second: CCC(=O)OC1(C(=O)CO)CCC2C3CC(C)C4=CC(=O)CCC4(C)C3C(O)CC21C (stereo not given)
The melting point of the first is lower: 170 to 172 °C for the first, 197 °C for the second.

First: CN1CCN(CCCn2cc(Br)c3c4c(c(-c5ccccc5Cl)cc32)C(=O)NC4=O)CC1
Second: COCC(O)Cn1c2ccc(OC)cc2c2c3c(c(-c4ccccc4)cc21)C(=O)NC3=O (stereo not given)
The melting point of the first is higher: 150 to 152 °C for the first, 128 to 136 °C for the second.

First: CC1(C)CCC(C)(C)c2cc(-c3csc(C=O)c3)ccc21
Second: CN(C)c1ccc2c(c1)C(=O)N(c1ccc3c(c1)CCN3C)C2
The melting point of the first is lower: 84 to 85 °C for the first, 268 to 270 °C for the second.

First: COc1ccc(S(=O)(=O)Nc2cccc3c2Nc2ccccc2CO3)cc1
Second: Cc1ccc(-c2c(-c3ccc(S(N)(=O)=O)cc3)[nH]c3ccccc23)cc1
The melting point of the first is lower: 154 to 155 °C for the first, 293 to 295 °C for the second.

Compared with `O=C(C=CC=C(c1ccccc1)c1ccccc1)NCCCCCC(=O)NO`, `Cc1nc2c(N)nc3ccccc3c2n1CCCNC(=O)c1ccccc1` is higher in melting point: 167 to 169 °C for the first, 230 to 231 °C for the second.

Compared with `O=C1N(c2c(Cl)cccc2Cl)Cc2cnc(Nc3cccc4ccccc34)nc2N1c1ccccc1`, `O=C(Nc1ccc(Cl)cc1Cl)c1ccccc1SSc1ccccc1C(=O)Nc1ccc(Cl)cc1Cl` is higher in melting point: 213 to 214 °C for the first, 227 to 228 °C for the second.

First: CNS(=O)(=O)c1ccccc1Nc1nc(Nc2ccc3c(c2)CNC(=O)CCN3)ncc1Cl
Second: COc1ccccc1Oc1c(Cl)nc(-c2ccncc2)nc1NS(=O)(=O)c1ccc(C)cn1
The melting point of the first is higher: 197 to 198 °C for the first, 177 to 179 °C for the second.

Compared with `Cc1nc2c3c(ccn2c1C)C(=O)[C@](O)(Cc1ccccc1)[C@@H](c1ccccc1)N3`, `O=C(O)c1cccc(P(c2ccccc2)c2ccccc2)n1` is lower in melting point: 248 to 251 °C for the first, 122 °C for the second.

First: CC(=S)O/C=C\n1nnnc1C
Second: CCCN(C(C)=O)c1cccc(-c2ccc3nnc(C)n3n2)c1
The melting point of the first is lower: 135 to 137 °C for the first, 145 to 149 °C for the second.

First: N#Cc1ccc(N2CCc3[nH]c4c(cnc5cc(Cl)ccc54)c3C2)cc1
Second: CN(C)c1ncc2c(n1)-c1ccc(Cl)cc1C(c1ccccc1F)=NC2
The melting point of the first is higher: > 275 °C for the first, 175 to 179 °C for the second.

First: CC(=O)OCC(C)C1=CCC2C3CC=C4CC(OC(C)=O)CC(OC(C)=O)C4(C)C3CCC12C (stereo not given)
Second: CCC(=O)Oc1ccc2c(c1)CCC1C2CCC2(C)C1CC(O)C2NC (stereo not given)
The melting point of the first is lower: 116 to 118 °C for the first, 182 to 185 °C for the second.

First: CCn1c(=O)[nH]c2cnc(-c3ccccc3)nc21
Second: Cn1nnc(-c2cn(C)c3ccccc3c2=O)n1
The melting point of the first is higher: 268 to 270 °C for the first, 189 to 192 °C for the second.

Compared with `CC(C)(C)CNc1cc(Cl)nc(NC(C)(C)C)n1`, `COc1cc(C)nc(NC(=O)NS(=O)(=O)c2ccccc2-n2cccn2)n1` is higher in melting point: 110 to 111 °C for the first, 200 to 204 °C for the second.

`CCCCCCCCCCCCCCCCN(C(=O)C(F)(F)F)c1ccc(C(=O)Nc2ccc(C(=O)OCC)cc2)cc1` and `CCCCCCCCCCCCCCCCS(=O)(=O)OC1CNC1` cannot be ordered by melting point: 91 to 93 °C for the first, 91 to 97 °C for the second.

First: COCc1cc(OC)c(-c2ccc(C[C@H](NC(=O)c3c(Cl)cccc3Cl)C(=O)O)cc2)c(OC)c1
Second: CCC(C)CNC(=O)c1ccc2cccc(Cc3ccc(C(=O)O)cc3OC)c2c1 (stereo not given)
The melting point of the first is higher: 232 to 235 °C for the first, 220 to 221 °C for the second.

Compared with `O=[N+]([O-])c1cc(C(c2ccc(Nc3ccccc3)c([N+](=O)[O-])c2)(C(F)(F)F)C(F)(F)F)ccc1Nc1ccccc1`, `O=C(O)c1cccc(C(=O)NC(Cc2c[nH]c3ccccc23)C(=O)CCc2cc(C(F)(F)F)cc(C(F)(F)F)c2)c1` (stereo not given) is lower in melting point: 165 to 166 °C for the first, 113 to 116 °C for the second.

First: CCCc1c(OCc2ccc(CSc3nnn[nH]3)cc2)ccc(C(C)=O)c1O
Second: CCOc1c(CC)ccnc1C(=O)c1[nH]c2cc(Cl)ccc2c1CC(=O)O
The melting point of the first is lower: 160 to 161 °C for the first, 165 °C for the second.

First: CCOC(=O)c1oc2ccc(Br)c(OC(C)C)c2c1C
Second: COC(=O)C1=C(C)NC(C)=C(C(=O)OCC2CCCO2)C1c1cccc(NC(C)=O)c1 (stereo not given)
The melting point of the first is lower: 48 to 50 °C for the first, 158 to 160 °C for the second.

Compared with `O=C(O)c1cc2c3ccccc3n(-c3ccccc3)c2s1`, `COC(=O)c1ccc(C=CC(=O)N2CCc3c([nH]c4ccccc34)C2c2ccccc2)cc1` (stereo not given) is higher in melting point: 206 to 207 °C for the first, 222 °C for the second.

Compared with `COc1cnn(-c2cccc(COc3ccccc3)c2)c(=O)c1OC`, `Nc1cccc(OCc2ncc3ccccc3n2)c1` is higher in melting point: 82 to 85 °C for the first, 103 to 107 °C for the second.

Compared with `CN(C)c1ccc(C2OCCN2CCNc2ccc(NCCN3CCOC3c3ccc(N(C)C)cc3)c3c2C(=O)c2c(O)ccc(O)c2C3=O)cc1` (stereo not given), `CCOc1cc(C)ccc1C1CCN(CCCCC(=O)Nc2ccc(-c3ccc(C(F)(F)F)cc3)cc2)CC1` is higher in melting point: 150 to 154 °C for the first, 178 °C for the second.

Compared with `O=C1CCC(C(=O)c2ccc(C3CCCCC3)cc2)N1` (stereo not given), `C(=C(c1ccccc1)N1CCCCC1)C1=NCCC1` is lower in melting point: 200 °C for the first, 123 to 124 °C for the second.

First: Oc1cccc(C2CCCN2Cc2cccnc2)c1 (stereo not given)
Second: O=C(O)c1c(F)cccc1NC1CCN(Cc2ccccc2)CC1
The melting point of the first is lower: 129 to 131 °C for the first, 233 to 236 °C for the second.

First: CCOC(=O)CCNC(=O)CCCCNC(=O)OC(C)(C)C
Second: CC(C)(C)OC(=O)C(NN)C(=O)O (stereo not given)
The melting point of the first is lower: 28 °C for the first, 144 to 146 °C for the second.

First: COC(=O)c1cccc(-c2cn(C)cc(-c3cccc(C)c3)c2=O)c1
Second: COc1ccccc1-c1ccc(C(=O)O)cc1C
The melting point of the first is higher: 180 to 183 °C for the first, 160 to 162 °C for the second.

First: Cc1nnc(-c2ccc3occ(-c4cnn(Cc5cccnc5)c4)c3c2)o1
Second: Cc1nn(-c2cccnc2)cc1C(=O)O
The melting point of the first is lower: 137 to 138 °C for the first, 200 to 210 °C for the second.

First: Cn1c(CCNC(=O)c2cc(F)cc3c2OCOC3)nc(-c2ccncn2)cc1=O
Second: O=C(Nc1cc2ncc(CN3CCCC3)cc2cc1F)c1ccc(Br)cc1
The melting point of the first is higher: 207 to 209 °C for the first, 119 to 121 °C for the second.

First: CCCn1nc2c(N)nc3ccccc3c2c1NCCC1CCN(S(C)(=O)=O)CC1
Second: CS(=O)(=O)Nc1ccccc1OCCCN1CCC(OC(c2ccccc2)c2ccsc2)CC1 (stereo not given)
The melting point of the first is higher: 204 to 207 °C for the first, 79.5 to 82 °C for the second.

First: CN1CCC(=C2c3ccccc3Sc3ccc(S(=O)(=O)C(F)(F)F)cc32)CC1
Second: O=C(O)CNC(=O)N1CCc2cc(S(=O)(=O)N3CCN(c4cccc(Cl)c4)CC3)ccc21
The melting point of the first is lower: 125 to 128 °C for the first, 214 °C for the second.

Compared with `CC(C)[C@H](NC(=O)Cc1csc(N(C)C)n1)C(=O)N[C@@H](Cc1ccccc1)[C@@H](O)C[C@H](Cc1ccccc1)NC(=O)OCc1cncs1`, `CCCCc1ncc(CC(Cc2ccccc2)C(=O)O)n1Cc1ccccc1` (stereo not given) is lower in melting point: 157 to 159 °C for the first, 148 to 150 °C for the second.

First: O=C(Cc1ccccc1F)N1C(=O)OC[C@H]1c1ccccc1
Second: O=C(O)Cc1cccc(NC(=O)NCC(=O)N2[C@@H](c3ccccc3O)CC[C@H]2c2ccccc2)c1 (racemic)
The melting point of the first is lower: 110 to 111 °C for the first, 165 °C for the second.

First: CCSc1nccn1N1CCN(c2ccc(OC)cc2)CC1
Second: COc1ccc(S(=O)(=O)C2(C(=O)O)CCN(C)CC2)cc1
The melting point of the first is lower: 112 °C for the first, 204 °C for the second.

First: CS(=O)(=O)c1ccc(-n2nc(-c3ccc(O)cc3O)c3ccc(O)cc32)cc1
Second: Cc1ccc(-n2nc(C#N)cc2-c2ccc(S(C)(=O)=O)cc2)cc1Br
The melting point of the first is lower: 94 to 96 °C for the first, 179 to 180 °C for the second.

First: COc1cc(C(CBr)(OC)OC)ccc1OS(=O)(=O)c1ccccc1
Second: CCN1C(c2ccccc2C(=O)c2ccc(Cl)cc2)=NCC1(C)C
The melting point of the first is higher: 134 °C for the first, 85 to 87 °C for the second.

Compared with `C=CC(=O)N(C)CCCCCCCCCCCOc1ccc(C(=O)O)c(C(=O)O)c1`, `CCCCOCCCn1c(CCCC)nc2cnc3cccnc3c21` is lower in melting point: 95 °C for the first, 56.5 to 57.5 °C for the second.

Compared with `Cc1nc2ccccn2c(=O)c1CCN1CC[C@H](Nc2nc3ccccc3n2Cc2ccc(F)cc2)[C@H](C)C1` (relative stereo), `OC(Cn1cncn1)(Cn1cnc(Cc2ccc(F)cc2)n1)c1ccccc1C(F)(F)F` (stereo not given) is lower in melting point: 161 °C for the first, 100 to 103 °C for the second.

Compared with `Cc1ccc(-c2ccccc2C2=NC(C)(C)CO2)cc1`, `O=C1N(c2ccc(Cl)c(Cl)c2)CCON1c1ccccc1` is higher in melting point: 56 to 59 °C for the first, 112 to 113 °C for the second.

Going from `CC1(c2nnc(S(C)(=O)=O)s2)CC(F)(F)C1(F)Cl` (stereo not given) to `CC1(C)CC(NC=O)CC(C)(C)N1`, the melting point rises from 63 °C to 153 °C.

First: COc1cccc([C@H]2O[C@H](CC(=O)N[C@H](CCSC)C(=O)O)C(=O)N(CC(C)(C)C)c3ccc(Cl)cc32)c1OC
Second: COC(=O)C1=C(O)c2c(c3ccccc3n2C)S(=O)(=O)N1C
The melting point of the first is lower: 161 to 162 °C for the first, 189 to 190 °C for the second.

First: CNC(=O)[C@H]1O[C@@H]1c1ccc(C)cc1
Second: CCCCNc1ccn2nccc2n1
The melting point of the first is higher: 152 to 153 °C for the first, 75 to 76 °C for the second.

First: S=C(NCCCCN(Cc1ccc(Cl)c(Cl)c1)c1ccc(Br)cn1)NCCCn1ccnc1
Second: Oc1ccc2[nH]cc(CCN3CCC(O)(c4ccccc4)CC3)c2c1
The melting point of the first is lower: 139 to 141 °C for the first, 150 °C for the second.

Compared with `COc1cc2c(Nc3ccc(Sc4nccn4C)c(Cl)c3)c(C#N)cnc2cc1OCCN1CCC(N2CCCC2)CC1`, `O=C1Nc2cccnc2N(C(=O)CN2CCN(CCN3CCOCC3)CC2)c2ccccc21` is higher in melting point: 127 to 130 °C for the first, 227 to 229 °C for the second.

First: O=C(C(=Cc1ccccc1)c1ccccc1)c1ccc(O)cc1
Second: COc1ccc(/C(=C\C=C\C(=O)O)c2cccnc2)cc1
The melting point of the first is lower: 186 to 190 °C for the first, 235 to 238 °C for the second.

First: Oc1c(Cl)cc2c(-c3ccccc3F)noc2c1Cl
Second: CCn1cc(C(=O)O)c(=O)c2cc(F)c(N3CCC(CN)C3)nc21 (stereo not given)
The melting point of the first is lower: 194 to 196 °C for the first, 217 to 218 °C for the second.

First: CC(C)c1cc(C(C)C)c(CC(=O)NS(=O)(=O)Oc2c(C(C)C)cc(NS(C)(=O)=O)cc2C(C)C)c(C(C)C)c1
Second: Cc1cc(C)nc(NC(=O)NS(=O)(=O)c2cccn2CCC#N)n1
The melting point of the first is higher: 164 to 166 °C for the first, 158 to 159 °C for the second.

First: Nc1nc(N)nc(N2CCNCC2)n1
Second: NC(=O)[C@@H]1[C@H](Nc2c(Cl)cnc3[nH]c(-c4cnn(C5CCNCC5)c4)nc23)[C@H]2C=C[C@@H]1C2
The melting point of the first is higher: 262 to 268 °C for the first, 203 to 205 °C for the second.

For `CN(C)c1nc2sc3c(NCCN4CCOCC4)ncnc3c2c2c1COC(C)(C)C2`, the melting point was 195 to 196 °C.

Reference: a melting point compilation (Tetko et al.; mined from patent text by program, amines drawn as free bases though some values may be those of a salt)
